Assay results as given in ChEMBL document CHEMBL1147248, “A new acylated oleanane triterpenoid from Couepia polyandra that inhibits the lyase activity of DNA polymerase beta” (J Nat Prod, 2003).

molecular target: DNA polymerase beta (Homo sapiens, UniProt P06746); assay: Inhibition of DNA polymerase beta lyase activity by deoxyribose phosphate excision assay

Row | SMILES | IC50 [µM]
1 | CC[C@H](/C=C/[C@@H](C)[C@H]1CC[C@H]2[C@@H]3CC=C4C[C@@H](O)CC[C@]4(C)[C@H]3CC[C@]12C)C(C)C [STIGMASTEROL] | 43.4
2 | CC1(C)CC[C@]2(C(=O)O)CC[C@]3(C)C(=CC[C@@H]4[C@@]5(C)CC[C@H](O)C(C)(C)[C@@H]5CC[C@]43C)[C@@H]2C1 [OLEANOLIC_ACID] | 8.8
3 | CC(=O)OC[C@@]1(C)[C@@H]2CC[C@]3(C)[C@H](CC=C4[C@@H]5CC(C)(C)CC[C@]5(C(=O)O)[C@@H](OC(C)=O)C[C@]43C)[C@@]2(C)CC[C@@H]1OC(C)=O | 13
4 | CC[C@H](CC[C@@H](C)[C@H]1CC[C@H]2[C@@H]3CC=C4C[C@@H](O)CC[C@]4(C)[C@H]3CC[C@]12C)C(C)C [BETA-SITOSTEROL] | 26.3
